Patent publication US20150299219A1, “BICYCLIC PYRAZOLONE COMPOUNDS AND METHODS OF USE” (Calitor Sciences, LLC, priority 2014, published 2015)

Tests used:
[1] = Compound stability in human liver microsomes; assay type: in vitro ADME; conditions: for half-life: pH 7.4, 0.5 mg protein/mL; for half-life / T1/2: NADPH, 37° C.; for CLint scaled: pH 7.4, in vivo CLint extrapolated; for T1/2: 0.5 mg protein/mL
Experimental: (§1) Human or rat liver microsomes incubations were conducted in duplicate in polypropylene tubes. The typical incubation mixtures consisted of human or rat liver microsomes (0.5 mg protein/mL), compounds of interest (5 μM) and NADPH (1.0 mM) in a total volume of 200 μL potassium phosphate buffer (PBS, 100 mM, pH 7.4). Compounds were dissolved in DMSO and diluted with PBS such that the final concentration of DMSO was 0.05%. The enzymatic reactions were commenced with the addition of protein after a 3-min preincubation and incubated in a water bath open to the air at 37° C. Reactions were terminated at various time points (0, 5, 10, 15, 30, 60 min) by adding equal volume of ice-cold acetonitrile. The samples were stored at −80° C. until LC/MS/MS assays.
(§2) The concentrations of compounds in the incubation mixtures of human or rat liver microsomes were determined by a LC/MS/MS method. The ranges of the linearity in the concentration range were determined for each tested compounds.
(§3) A parallel incubation was performed using denatured microsomes as the negative control, and reactions were terminated at various time points (0, 15, 60 min) after incubation at 37° C.
(§4) Dextromethorphan (70 μM) was selected as the positive control, and reactions were terminated at various time points (0, 5, 10, 15, 30, 60 min) after incubation at 37° C. Both positive and negative control samples were included in each assay to ensure the integrity of the microsomal incubation system.
(§5) Alternatively, the stability of some of the compounds disclosed herein in human (or rat) liver microsomes were also conducted in the following protocol. The incubations were conducted in duplicate in polypropylene tubes. The typical incubation mixtures consisted of liver microsomes (final concentration: 0.5 mg protein/mL), compounds (final concentration: 1.5 μM) in a total volume of 30 μL K-buffer (contain 1.0 mM EDTA, 100 mM, pH7.4). Compounds were dissolved in DMSO and diluted with K-buffer such that the final concentration of DMSO was 0.2%. The enzymatic reactions were commenced with the addition of 15 μL of NADPH (final concentration: 2 mM) after 10 min preincubation and incubated in a 37° C. incubator. Reactions were terminated at various time points (0, 15, 30, 60 min) by adding 135 μL acetonitrile (contain IS). Protein is removed by centrifugation with 4000 rpm, 10 min. Supernatant was collected for LCMS/MS analysis
(§6) In the above protocol, ketanserin (1 μM) was selected as the positive control, and reactions were terminated at various time points (0, 15, 30, 60 min) after incubation at 37° C. The positive control sample was included in each assay to ensure the integrity of the microsomal incubation system.
(§7) The concentrations of compounds in human or rat liver microsome incubations were plotted as a percentage of the relevant zero time point control for each reaction. The in vivo CLint were extrapolated (ref: Naritomi, Y.; Terashita, S.; Kimura, S.; Suzuki, A.; Kagayama, A.; and Sugiyama, Y.; Prediction of human hepatic clearance from in vivo animal experiments and in vitro metabolic studies with liver microsomes from animals and humans. Drug Metab. Dispos., 2001, 29: 1316-1324).

[2] = Compound stability in rat liver microsomes; assay type: in vitro ADME; conditions: for half-life: pH 7.4, 0.5 mg protein/mL, NADPH, 37° C.; for CLint scaled: pH 7.4, in vivo CLint extrapolated
Experimental: as §1, §2, §3, §4, §5, §6, §7

Row | half-life [1] [h] | CLint scaled [1] [mL/min/kg] | half-life [2] [h] | CLint scaled [2] [mL/min/kg] | T1/2 [1] | Compound
1 | 32.2 | 0.9 | 5.7 | 7.26 |  | CC(=O)Nc1cc(Oc2ccc(NC(=O)c3c4n(n(-c5ccccc5)c3=O)CCC4)cc2)ccn1 [Ex. 3, N-(4-((2-acetamidopyridin-4-yl)oxy)phenyl)-2-oxo-1-phenyl-2,4,5,6-tetrahydro-1H-pyrrolo[1,2-b]pyrazole-3-carboxamide]
2 |  |  | 2.87 | 14.4 | ∞ | O=C(Nc1ccc(Oc2ccnc(NC(=O)C3CC3)c2)cc1)c1c2n(n(-c3ccccc3)c1=O)CCOC2 [Ex. 19, N-(4-((2-(cyclopropanecarboxamido)pyridin-4-yl)oxy)phenyl)-2-oxo-1-phenyl-2,4,6,7-tetrahydro-1H-pyrazolo[5,1-c][1,4]oxazine-3-carboxamide]

The remaining lines, values behind:

Row | Compound | half-life [1] [h] | CLint scaled [1] [mL/min/kg] | half-life [2] [h] | CLint scaled [2] [mL/min/kg] | T1/2 [1]
3 | O=C(Nc1ccc(Oc2ccnc(NC(=O)C3CC3)c2)cc1)c1c2n(n(-c3ccccc3)c1=O)CCC2 [Ex. 2, N-(4-((2-(cyclopropanecarboxamido)pyridin-4-yl)oxy)phenyl)-2-oxo-1-phenyl-2,4,5,6-tetrahydro-1H-pyrrolo[1,2-b]pyrazole-3-carboxamide] | 4.07 | 7.13 | 3.19 | 13 | 
4 | CC(=O)Nc1cc(Oc2ccc(NC(=O)c3c4n(n(-c5ccccc5)c3=O)CCOC4)nc2)ccn1 [Ex. 12, N-(5-((2-acetamidopyridin-4-yl)oxy)pyridin-2-yl)-2-oxo-1-phenyl-2,4,6,7-tetrahydro-1H-pyrazolo[5,1-c][1,4]oxazine-3-carboxamide] |  |  | 16.6 | 2.49 | ∞
5 | O=C(Nc1ccc(Oc2ccnc(NC(=O)C3CC3)c2)cn1)c1c2n(n(-c3ccccc3)c1=O)CCC2 [Ex. 14, N-(5-((2-(cyclopropanecarboxamido)pyridin-4-yl)oxy)pyridin-2-yl)-2-oxo-1-phenyl-2,4,5,6-tetrahydro-1H-pyrrolo[1,2-b]pyrazole-3-carboxamide] | 8.47 | 3.42 | 3.32 | 12.5 | 
